Assay results: patent publication US7338454B2, “Breath test” (Children, Youth and Women's Health Service Incorporated, priority 2001, dated 2008)
Where “and” joins values, the source holds several entries; their conditions need not be identical. Equal entries are not always repeated. Marks after values point to notes of the source that are not given here.

What was measured:
Dark Agouti rats [1] = assay: Food intake of 5-FU treated rats; format: in vivo, rat; details: 5-FU 150 mg/kg i.p.
Procedure: (§1) Ten female Dark Agouti rats were injected intraperitoneally with 150 mg/kg 5-FU; three rats there killed at 48, 72 and four at 96 hours after 5-FU treatment. Two control rats were not treated with 5-FU. Sucrose breath tests (SBT) were undertaken before chemotherapy and prior to sacrifice by measuring released ^13CO2 in the breath after gavages of ^13C-sucrose as an indicator of small intestine (SI) sucrase function. Tissue samples were collected from SI for sucrase enzyme determinations and histological assessment from the jejunum and ileum.

sucrase [2] = assay: Ileal sucrase activity in 5-FU treated rats; format: in vivo, rat; details: 5-FU 150 mg/kg i.p., normal level 54.9±0.9
Procedure: as §1

small intestine [3] = assay: Histological severity scores of jejunum and ileum in 5-FU treated rats; format: in vivo, rat; details: 5-FU 150 mg/kg i.p.
Procedure: as §1

Dark Agouti rats [4] = assay: Food intake, body weight, villus height and overall mucosal damage in MTX-treated rats with or without folinate; format: in vivo, rat
Procedure: (§2) Sixteen female SPF Dark Agouti rats were housed in individual metabolism cages and were given ad libitum access to a semi-synthetic casein based diet and fresh water. Food and water intakes and body weights were measured daily. They were given two injections of MTX (1.5 mg/kg i/m) at 0 and 24 hrs. Calcium folinate was added to the drinking water of eight rats (10 mg/m^2) 2 hours prior to, and during MTX injections. Eight rats were given MTX but no folinate treatment, and four control rats were given no treatments. Four rats from each treatment group were killed at 72 hours, and the other four at 120 hours, after initial chemotherapy. SBT were undertaken before chemotherapy, and at 52 and 100 hours after initial chemotherapy.
(§3) At the appropriate times, rats were anaesthetised with halothane, cardiac blood samples collected and the animals were killed by cervical dislocation. The small intestine was emptied, flushed with chilled saline and weighed. Samples were collected into formalin from each of the proximal jejunum for histological assessment, and from the jejunum into liquid nitrogen for sucrase and myeloperoxidase determinations.

sucrase [5] = assay: Jejunal sucrase activity in MTX-treated rats with or without folinate; format: in vivo, rat; details: MTX-treated rats with folinate vs non-folinate
Procedure: as §2, §3
Sucrase activity was measured using a modification of the glucose oxidase method for estimation of the […] glucose concentration (Dahlqvist, 1968).

Dark Agouti rats [6] = assay: Sucrose breath test in MTX-treated rats with or without folinate; format: in vivo, rat
Procedure: as §2
Breath ^13CO2 levels are indicative of sucrase activity in the small intestine. SBTs were undertaken before and after chemotherapy. • Rats were fasted for 3 hrs and placed in the collection chambers for 15 minutes to acclimatise and baseline samples collected into exetainers. • Rats were gavaged with 1.0 ml of a sucrose solution containing 1 g/ml of naturally enriched ^13C-sucrose. • Breath samples were collected at 30, 60 and 90 minute time intervals after gavage and analysed for ^13CO2 by isotope ratio mass spectrometry (PDZ-Europa ABCA).

sucrase [7] = target: T1, sucrase (Homo sapiens, UniProt P14410); assay: Breath hydrogen analysis in healthy adults, with and without sucrase inhibitor; format: in vivo; details: 20 g sucrose with or without 200 mg acarbose, 180 min
T1 construct: from tissue; host or cells: small-intestinal brush border of living human volunteers (in vivo breath test; no isolated protein)
Procedure: Subjects ingested 20 g, 40 g and 60 g sucrose (AnalaR, BDH, MERCK Pty Ltd, Victoria, Australia) dissolved in 100 ml water on separate occasions. The order of these breath tests was random for each subject. To determine whether the breath test was capable of detecting inhibition of sucrase activity, two volunteers ingested 2×100 mg sucrase inhibitor (Acarbose tablets, Glucobay™) crushed and dissolved in 30 ml water, immediately followed by 20 g sucrose dissolved in 70 ml water.
All subjects were required to fast for a minimum of eight hours prior to testing and for the three hour duration of the test period. Small amounts of water were permitted 30 minutes after ingestion of the test solution. Subjects provided two baseline breath samples immediately prior to ingestion of the test solution. Following ingestion of the test solution, breath samples were collected every 15 minutes for three hours. Physical activity was avoided during the three hour experimental period, particularly at breath collection time points. End-expiratory breath samples were provided by exhaling through a straw into 5×10 ml glass tubes (Exetainer, Labco Limited, High Wycombe, England). […]
Breath samples provided by human subjects were analysed for hydrogen content by gas chromatography (Quintron, Model DP Microlyzer, E.F. Brewer Company, Wisconsin). […]

myeloperoxidase = assay: Jejunal myeloperoxidase (MPO) in MTX-treated rats; format: in vivo, rat; details: MTX treated rats not given folinate, 72 hours
Procedure: as §2, §3

sucrase [8] = assay: In vitro assay of sucrase activity in duodenum, jejunum and ileum of methotrexate-treated rats; format: in vivo, rat; details: Day 7 after methotrexate treatment, vs control, p<0.0005
Text: Rats were sacrificed in the afternoon of day 7 by cervical dislocation under CO2 anaesthesia. The abdomen was opened via a midline incision and the liver and gut excised. The gut contents were flushed thoroughly with phosphate buffered saline, pH 6.0. The small intestine was placed on an ice-cold slab and divided into three sections: the duodenum comprising the intestine from the gastro-duodenal junction to the ligament of Treitz; the remaining intestine from the ligament of Treitz to the caecum was divided in half to provide jejunum and ileum of equal length. […]
the method of Dahlqvist (1968). […] Enzyme activity was then related to the protein concentration of the enzyme preparation as determined by the method of Bradford (1976), in which a standard curve of bovine serum albumin concentration is used to ascertain the protein content of the sample. As a result, the sucrase activity representative of duodenal, jejunal and ileal brush border membrane was determined as μ mol of substrate hydrolysed at 37° C. at pH 6.0/mg protein/hour.
Sucrase activity was expressed as specific activity relative to protein (μmol substrate hydrolysed at 37° C. at pH 6.0/mg protein/hour) and presented as mean±SEM. […] Significant difference in sucrase activity in the duodenum, jejunum and ileum of methotrexate-treated compared to control rats was detected using an unpaired t-test.

small intestine [9] = assay: Histological severity score of small intestinal damage, methotrexate-treated rats; format: in vivo, rat; details: rats treated with methotrexate seven days earlier, n=4; median; maximum score 33
Text: Rats were sacrificed in the afternoon of day 7 by cervical dislocation under CO2 anaesthesia. The abdomen was opened via a midline incision and the liver and gut excised. The gut contents were flushed thoroughly with phosphate buffered saline, pH 6.0. The small intestine was placed on an ice-cold slab and divided into three sections: the duodenum comprising the intestine from the gastro-duodenal junction to the ligament of Treitz; the remaining intestine from the ligament of Treitz to the caecum was divided in half to provide jejunum and ileum of equal length. A 4 cm portion was excised from each intestinal section and was rapidly frozen in liquid nitrogen, before being transferred to a −70° C. freezer until determination of sucrase activity. A further 1 cm of each section was excised and fixed in methacarn fixative for two hours, transferred to 70% ethanol for 48 hours, and embedded in paraffin wax for histological analysis (Howarth et al., (1996).
Tissue samples in paraffin wax were sectioned transversely at 21 μm, stained with haematoxylin and eosin to expose the structure of the intestinal mucosa, and examined by an under a light microscope (Howarth et al., 1996). A semi-quantitative histological assessment of intestinal damage was utilised to obtain an overall score of damage severity in the three sections of the small intestine. A severity score ranging from 0-3 was allocated for 11 histological features (table 1), such that the maximum severity score (33) indicated the most severe damage (Howarth et al., 1996).
Histological severity scores were calculated and presented as median and range. The unpaired non-parametric Mann-Whitney two-sample test was employed to compare the severity scores of the methotrexate-treated rats with controls for each section of intestine.

sucrase [10] = target: T1, sucrase; assay: 13C-Sucrose Breath Test in healthy adults, with and without sucrase inhibitor; format: in vivo; details: two human subjects, respectively; 200 mg acarbose with 20 g sucrose vs 20 g sucrose alone
Procedure: Breath samples were analysed for ^13CO2 by an isotope ratio mass spectrometer (IRMS; Europa Scientific, ABCA 20/20, Crewe, United Kingdom) equipped with a V410 data collection system. Isotope ratio mass spectrometric analysis of breath samples expresses results as a delta value, representing the ratio of ^13C/^12C in the sample in parts per thousand relative to the calcium carbonate international primary standard, Pee-Dee Belemnite limestone (South Carolina, USA)(Renes et al., (1997). Baseline levels of breath ^13CO2 were determined by averaging the delta of breath samples collected prior to the ingestion of sucrose. Results from the ^13C-Sucrose Breath Test were then calculated as the change in breath ^13CO2 levels from baseline (i.e. delta over baseline: DOB) for each time point of breath collection over the period of interval sampling. The area under the “change in breath ^13CO2 level over time” curve (AUC) was calculated using the trapezoidal rule: AUC=Σ[(DOBt1+DOBt2)/2]×(t2−t1)
The study recruited 10 healthy, non-smoking adults (male n=2; female n=8) aged 19-37 years old (mean age 22+2 years) with mean weight 65.2+3 kg. Subjects had no known history of gastrointestinal or liver disease. Antibiotic and non-steroidal antiinflammatory drug use in the three weeks preceding the experiment and acute alcohol consumption the day preceding the experiment warranted exclusion. […]

T1 sequence (P14410 whole entry): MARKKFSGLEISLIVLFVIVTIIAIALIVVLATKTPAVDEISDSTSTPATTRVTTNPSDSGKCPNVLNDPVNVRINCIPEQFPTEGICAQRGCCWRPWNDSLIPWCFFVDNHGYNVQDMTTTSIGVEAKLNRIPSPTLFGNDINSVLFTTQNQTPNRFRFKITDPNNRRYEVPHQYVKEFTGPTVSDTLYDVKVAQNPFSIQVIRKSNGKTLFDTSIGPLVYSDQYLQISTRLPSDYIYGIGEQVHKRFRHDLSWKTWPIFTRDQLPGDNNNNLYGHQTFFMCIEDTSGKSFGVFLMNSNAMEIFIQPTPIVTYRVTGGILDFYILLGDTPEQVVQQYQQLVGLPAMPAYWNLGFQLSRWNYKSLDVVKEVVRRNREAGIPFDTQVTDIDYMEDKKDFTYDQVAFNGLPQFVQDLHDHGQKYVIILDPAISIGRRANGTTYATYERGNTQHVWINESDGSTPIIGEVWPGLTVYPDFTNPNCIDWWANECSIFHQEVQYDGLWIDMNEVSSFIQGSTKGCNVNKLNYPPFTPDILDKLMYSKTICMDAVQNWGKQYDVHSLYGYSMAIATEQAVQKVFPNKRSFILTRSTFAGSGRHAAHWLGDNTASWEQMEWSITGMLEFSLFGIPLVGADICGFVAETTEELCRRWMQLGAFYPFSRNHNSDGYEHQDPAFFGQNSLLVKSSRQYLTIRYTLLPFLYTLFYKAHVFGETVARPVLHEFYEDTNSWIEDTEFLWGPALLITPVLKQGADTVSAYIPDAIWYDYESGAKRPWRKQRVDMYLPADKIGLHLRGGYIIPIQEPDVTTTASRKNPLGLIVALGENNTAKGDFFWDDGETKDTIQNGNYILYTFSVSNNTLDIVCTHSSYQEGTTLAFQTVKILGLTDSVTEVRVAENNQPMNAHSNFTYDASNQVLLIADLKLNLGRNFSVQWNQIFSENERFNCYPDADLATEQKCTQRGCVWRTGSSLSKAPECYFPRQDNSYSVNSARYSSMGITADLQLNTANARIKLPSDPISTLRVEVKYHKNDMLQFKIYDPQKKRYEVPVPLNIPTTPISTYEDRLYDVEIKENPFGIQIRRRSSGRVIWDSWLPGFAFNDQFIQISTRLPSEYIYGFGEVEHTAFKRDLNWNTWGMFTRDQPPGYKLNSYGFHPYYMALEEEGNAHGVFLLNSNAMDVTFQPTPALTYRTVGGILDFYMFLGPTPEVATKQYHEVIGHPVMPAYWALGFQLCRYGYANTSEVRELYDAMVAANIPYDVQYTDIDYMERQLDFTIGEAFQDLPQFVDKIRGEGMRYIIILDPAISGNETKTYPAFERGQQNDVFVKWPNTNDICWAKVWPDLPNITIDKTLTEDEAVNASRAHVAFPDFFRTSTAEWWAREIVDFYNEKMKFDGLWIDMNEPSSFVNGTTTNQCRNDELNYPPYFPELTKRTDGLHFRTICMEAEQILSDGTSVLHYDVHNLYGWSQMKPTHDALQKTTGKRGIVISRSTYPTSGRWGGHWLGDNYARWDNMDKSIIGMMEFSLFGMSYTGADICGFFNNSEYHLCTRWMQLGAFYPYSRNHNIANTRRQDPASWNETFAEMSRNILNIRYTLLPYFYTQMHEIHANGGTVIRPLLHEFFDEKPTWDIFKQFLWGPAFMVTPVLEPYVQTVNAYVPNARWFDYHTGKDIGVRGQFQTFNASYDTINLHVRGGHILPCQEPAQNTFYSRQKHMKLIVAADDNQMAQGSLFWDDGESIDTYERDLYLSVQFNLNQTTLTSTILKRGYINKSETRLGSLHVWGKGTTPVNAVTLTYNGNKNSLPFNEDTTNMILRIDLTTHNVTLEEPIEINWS

## O=c1[nH]cc(F)c(=O)[nH]1 [5-FU, 5-fluorouracil]
Dark Agouti rats [1]
  Food intake 72 hours after injection: 4.7 ± 0.7 g
  Food intake 96 hours after injection: 6.4 ± 0.8 g
Dark Agouti rats [1]; before treatment 11.1±0.3 g/rat/day
  Food intake 24 hours after injection: 5.3 ± 0.4 g
Sucrase [2]
  Ileal sucrase activity at 72 hours: 7.52±0.82 nmol glucose/min/cm
Small intestine [3]
  Histological severity score, ileum, 72 hours: 12
  Histological severity score, ileum, 96 hours: 8
  Histological severity score, jejunum, 72 hours: 8
  Histological severity score, jejunum, 96 hours: 5
Small intestine [3]; median
  Histological severity score, ileum, 48 hours: 17
  Histological severity score, jejunum, 48 hours: 13

## Nc1nc(=O)c2c([nH]1)NCC(CNc1ccc(C(=O)N[C@@H](CCC(=O)[O-])C(=O)[O-])cc1)N2C=O.[Ca+2] (stereo partly shown) [Calcium folinate]
Dark Agouti rats [4]; MTX-treated rats
  Damage to the small intestinal mucosa by sucrase activity, MPO levels, histological changes and sucrose breath testing: totally prevented damage
Dark Agouti rats [4]; MTX-treated rats, folinate administered orally
  Villus heights (structural damage): structural damage was attenuated
Sucrase [5]
  Jejunal sucrase activity: prevented the reduction in jejunal sucrase activity
Dark Agouti rats [6]; MTX-treated rats, p<0.0012 at 52 hours, p<0.0136 at 100 hours
  Disruption to the sucrase activity by SBT, folinate vs no folinate: significant decrease in disruption to the sucrase activity
Dark Agouti rats [6]; rats, MTX 1.5 mg/kg i/m at 0 and 24 hrs, calcium folinate 10 mg/m^2 in drinking water
  SBT result (breath 13CO2) 52 hrs after MTX treatment: attenuates mucosal damage

## OC[C@H]1O[C@@](CO)(O[C@H]2O[C@H](CO)[C@@H](O)[C@H](O)[C@H]2O)[C@@H](O)[C@@H]1O [Sucrose, sucrose]
Sucrase [7]
  Breath Hydrogen, Subject 1, maximum change from baseline: 2 ppm
  Breath Hydrogen, Subject 2, maximum change from baseline: 2 ppm

## CN(Cc1cnc2nc(N)nc(N)c2n1)c1ccc(C(=O)N[C@@H](CCC(=O)O)C(=O)O)cc1 [methotrexate]
Dark Agouti rats [4]; rats, MTX without folinate, after chemotherapy
  Body weights: decreased
Dark Agouti rats [4]; rats, MTX without folinate, from t0 to 96 hours after treatment
  Reduction in food intake: 20%
myeloperoxidase
  Myeloperoxidase (inflammatory marker), jejunum: significantly higher
Sucrase [8]
  Sucrase activity in duodenum, jejunum and ileum: significantly diminished in all three sections of intestine
Small intestine [9]
  Severity score, duodenum: 8 *
  Severity score, ileum: 6.5 *
  Severity score, jejunum: 10 *

## C[C@H]1O[C@H](O[C@H]2[C@H](O)[C@@H](O)[C@@H](O[C@H]3[C@H](O)[C@@H](O)C(O)O[C@@H]3CO)O[C@@H]2CO)[C@H](O)[C@@H](O)[C@@H]1N[C@H]1C=C(CO)[C@@H](O)[C@H](O)[C@H]1O (stereo partly shown) [Acarbose]
Sucrase [10]
  Breath 13CO2 AUC diminished in the presence of the inhibitor: 57% and 93%
